According to PubChem BioAssay AID1845212 (Molecular Pharmacology Branch, DTP, NCI, 2023):

Test system: NCI-H719 tumor spheroids, viability
Assay: Anticancer human tumor NCI-H719 cell line growth inhibition;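 further: spheroids exposed to compounds for seven days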;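 on viability, T/C: percent viability relative to DMSO vehicle control as 100%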
Conditions: spheroids with HUVEC and MSC; for IC50: curve of first compound; for viability, T/C: stronger effect = lower value
How it was run: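 Complex tumor spheroids combined malignant cells with endothelial cells and mesenchymal stem cells. DNA-damaging drugs and DNA repair inhibitors were tested alone and in combination, at half-log dilutions down from clinical Cmax (top 10 microM if Cmax unknown), 0.25% DMSO final.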

[1] = second compound 0.003 µM, first compound 0.0316 µM
[2] = second compound 0.003 µM, first compound 0.1 µM
[3] = second compound 0.003 µM, first compound 0.316 µM
[4] = second compound 0.003 µM, first compound 1 µM
[5] = second compound 0.003 µM, first compound 3.16 µM
[6] = second compound 0.003 µM, first compound 10 µM

Cc1cc(C)c(CNC(=O)c2cc(-c3ccc(CN4CCOCC4)cc3)cc3c2cnn3C2CCCC2)c(=O)[nH]1 + CC[C@@]1(O)C(=O)OCc2c1cc1n(c2=O)Cc2cc3c(CN(C)C)c(O)ccc3nc2-1
IC50 (second compound 0.003 µM): 2260 nM
IC50 (second compound 0.00949 µM): < 31.6 nM
IC50 (second compound 0.03 µM): < 31.6 nM
IC50 (second compound 0.0949 µM): < 31.6 nM
IC50 (second compound 0.3 µM): < 31.6 nM
viability, T/C [1]: 52.6%
viability, T/C [2]: 52.9%
viability, T/C [3]: 54.8%
viability, T/C [4]: 51.6%
viability, T/C [5]: 49.1%
viability, T/C [6]: 39.2%
viability, T/C (second compound 0.00949 µM, first compound 0.0316 µM): 6.76%
viability, T/C (second compound 0.00949 µM, first compound 0.1 µM): 6.82%
viability, T/C (second compound 0.00949 µM, first compound 0.316 µM): 6.88%
viability, T/C (second compound 0.00949 µM, first compound 1 µM): 6.69%
viability, T/C (second compound 0.00949 µM, first compound 3.16 µM): 6.81%
viability, T/C (second compound 0.00949 µM, first compound 10 µM): 5.13%
viability, T/C (second compound 0.03 µM, first compound 0.0316 µM): 6.03%
viability, T/C (second compound 0.03 µM, first compound 0.1 µM): 5.75%
viability, T/C (second compound 0.03 µM, first compound 0.316 µM): 6.33%
viability, T/C (second compound 0.03 µM, first compound 1 µM): 5.99%
viability, T/C (second compound 0.03 µM, first compound 3.16 µM): 6.45%
viability, T/C (second compound 0.03 µM, first compound 10 µM): 16.3%
viability, T/C (second compound 0.0949 µM, first compound 0.0316 µM): 5.7%
viability, T/C (second compound 0.0949 µM, first compound 0.1 µM): 5.83%
viability, T/C (second compound 0.0949 µM, first compound 0.316 µM): 5.84%
viability, T/C (second compound 0.0949 µM, first compound 1 µM): 6.02%
viability, T/C (second compound 0.0949 µM, first compound 3.16 µM): 6.69%
viability, T/C (second compound 0.0949 µM, first compound 10 µM): 6.41%
viability, T/C (second compound 0.3 µM, first compound 0.0316 µM): 5.68%
viability, T/C (second compound 0.3 µM, first compound 0.1 µM): 6.37%
viability, T/C (second compound 0.3 µM, first compound 0.316 µM): 6.67%
viability, T/C (second compound 0.3 µM, first compound 1 µM): 6.18%
viability, T/C (second compound 0.3 µM, first compound 3.16 µM): 6.37%
viability, T/C (second compound 0.3 µM, first compound 10 µM): 6.13%

[2H]c1nc(C)nc([2H])c1-c1cc(NC[C@@H](C)c2cccc3c(C(=O)NC)ccnc23)ncn1 + COc1cc2c(cc1O)CCNC21CSC2c3c(OC(C)=O)c(C)c4c(c3C(COC1=O)N1C(O)C3Cc5cc(C)c(OC)c(O)c5C(C21)N3C)OCO4
IC50 (second compound 30 pM): > 10000 nM
IC50 (second compound 94.9 pM): < 31.6 nM
IC50 (second compound 0.0003 µM): < 31.6 nM
IC50 (second compound 0.000949 µM): < 31.6 nM
IC50 (second compound 0.003 µM): < 31.6 nM
viability, T/C (second compound 30 pM, first compound 0.0316 µM): 89.5%
viability, T/C (second compound 30 pM, first compound 0.1 µM): 82.5%
viability, T/C (second compound 30 pM, first compound 0.316 µM): 71.9%
viability, T/C (second compound 30 pM, first compound 1 µM): 66.6%
viability, T/C (second compound 30 pM, first compound 3.16 µM): 76.8%
viability, T/C (second compound 30 pM, first compound 10 µM): 79.7%
viability, T/C (second compound 94.9 pM, first compound 0.0316 µM): 20.4%
viability, T/C (second compound 94.9 pM, first compound 0.1 µM): 32.3%
viability, T/C (second compound 94.9 pM, first compound 0.316 µM): 38.6%
viability, T/C (second compound 94.9 pM, first compound 1 µM): 28.9%
viability, T/C (second compound 94.9 pM, first compound 3.16 µM): 22.1%
viability, T/C (second compound 94.9 pM, first compound 10 µM): 29.2%
viability, T/C (second compound 0.0003 µM, first compound 0.0316 µM): 6.45%
viability, T/C (second compound 0.0003 µM, first compound 0.1 µM): 6.02%
viability, T/C (second compound 0.0003 µM, first compound 0.316 µM): 6.77%
viability, T/C (second compound 0.0003 µM, first compound 1 µM): 8.36%
viability, T/C (second compound 0.0003 µM, first compound 3.16 µM): 6.88%
viability, T/C (second compound 0.0003 µM, first compound 10 µM): 7.14%
viability, T/C (second compound 0.000949 µM, first compound 0.0316 µM): 7.69%
viability, T/C (second compound 0.000949 µM, first compound 0.1 µM): 7.59%
viability, T/C (second compound 0.000949 µM, first compound 0.316 µM): 6.74%
viability, T/C (second compound 0.000949 µM, first compound 1 µM): 6.63%
viability, T/C (second compound 0.000949 µM, first compound 3.16 µM): 6.53%
viability, T/C (second compound 0.000949 µM, first compound 10 µM): 7.49%
viability, T/C [1]: 0.31%
viability, T/C [2]: 0.58%
viability, T/C [3]: 0.16%
viability, T/C [4]: 0.86%
viability, T/C [5]: 0.13%
viability, T/C [6]: 0.24%

CC1COCCN1c1cc(-c2ccnn2C)c2ccnc(-c3ccn[nH]3)c2n1 (stereo not given) + Cn1nnc2c(C(N)=O)ncn2c1=O
IC50 (second compound 1 µM): 81.1 nM
IC50 (second compound 3.16 µM): 60.2 nM
IC50 (second compound 10 µM): 63.8 nM
IC50 (second compound 31.6 µM): 38.9 nM
IC50 (second compound 100 µM): < 31.6 nM
viability, T/C (second compound 1 µM, first compound 0.0316 µM): 60.4%
viability, T/C (second compound 1 µM, first compound 0.1 µM): 47.4%
viability, T/C (second compound 1 µM, first compound 0.316 µM): 27.2%
viability, T/C (second compound 1 µM, first compound 1 µM): 13.5%
viability, T/C (second compound 1 µM, first compound 3.16 µM): 7.33%
viability, T/C (second compound 1 µM, first compound 10 µM): 9.3%
viability, T/C (second compound 3.16 µM, first compound 0.0316 µM): 61.2%
viability, T/C (second compound 3.16 µM, first compound 0.1 µM): 40.7%
viability, T/C (second compound 3.16 µM, first compound 0.316 µM): 23.1%
viability, T/C (second compound 3.16 µM, first compound 1 µM): 10.2%
viability, T/C (second compound 3.16 µM, first compound 3.16 µM): 7.62%
viability, T/C (second compound 3.16 µM, first compound 10 µM): 9.51%
viability, T/C (second compound 10 µM, first compound 0.0316 µM): 63.1%
viability, T/C (second compound 10 µM, first compound 0.1 µM): 41%
viability, T/C (second compound 10 µM, first compound 0.316 µM): 23.3%
viability, T/C (second compound 10 µM, first compound 1 µM): 9.97%
viability, T/C (second compound 10 µM, first compound 3.16 µM): 7.59%
viability, T/C (second compound 10 µM, first compound 10 µM): 8.83%
viability, T/C (second compound 31.6 µM, first compound 0.0316 µM): 54.5%
viability, T/C (second compound 31.6 µM, first compound 0.1 µM): 30.4%
viability, T/C (second compound 31.6 µM, first compound 0.316 µM): 18.1%
viability, T/C (second compound 31.6 µM, first compound 1 µM): 8.01%
viability, T/C (second compound 31.6 µM, first compound 3.16 µM): 6.53%
viability, T/C (second compound 31.6 µM, first compound 10 µM): 9.03%
viability, T/C (second compound 100 µM, first compound 0.0316 µM): 26.8%
viability, T/C (second compound 100 µM, first compound 0.1 µM): 14.7%
viability, T/C (second compound 100 µM, first compound 0.316 µM): 9.58%
viability, T/C (second compound 100 µM, first compound 1 µM): 5.42%
viability, T/C (second compound 100 µM, first compound 3.16 µM): 17.8%
viability, T/C (second compound 100 µM, first compound 10 µM): 7.51%
